From PubChem BioAssay (NCI)
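Results reflect a 48-hour exposure of cells in 96-well plates to compound at five concentrations. The concentration for full growth arrest is given as TGI.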

How the values were obtained:
Test in all cases: NCI tumour cell line growth inhibition, 48 h
786-0 renal = test system: 786-0 renal
A549 NSCLC = test system: A549 NSCLC
ACHN renal = test system: ACHN renal
COLO 205 colon = test system: COLO 205 colon
DLD-1 colon = test system: DLD-1 colon
DMS 114 small cell lung = test system: DMS 114 small cell lung
DMS 273 small cell lung = test system: DMS 273 small cell lung
EKVX NSCLC = test system: EKVX NSCLC
HCC-2998 colon = test system: HCC-2998 colon
HCT-116 colon = test system: HCT-116 colon
HCT-15 colon = test system: HCT-15 colon
HOP-18 NSCLC = test system: HOP-18 NSCLC
HOP-62 NSCLC = test system: HOP-62 NSCLC
HOP-92 NSCLC = test system: HOP-92 NSCLC
HT29 colon = test system: HT29 colon
IGROV1 ovarian = test system: IGROV1 ovarian
KM12 colon = test system: KM12 colon
KM20L2 colon = test system: KM20L2 colon
LOX IMVI melanoma = test system: LOX IMVI melanoma
LXFL 529 NSCLC = test system: LXFL 529 NSCLC
M14 melanoma = test system: M14 melanoma
M19-MEL melanoma = test system: M19-MEL melanoma
MALME-3M melanoma = test system: MALME-3M melanoma
MOLT-4 leukemia = test system: MOLT-4 leukemia
NCI-H226 lung = test system: NCI-H226 lung
NCI-H23 lung = test system: NCI-H23 lung
NCI-H460 lung = test system: NCI-H460 lung
NCI-H522 lung = test system: NCI-H522 lung
OVCAR-3 ovarian = test system: OVCAR-3 ovarian
OVCAR-5 ovarian = test system: OVCAR-5 ovarian
OVCAR-8 ovarian = test system: OVCAR-8 ovarian
RPMI-8226 leukemia = test system: RPMI-8226 leukemia
RXF 393 renal = test system: RXF 393 renal
SF-268 CNS = test system: SF-268 CNS
SF-295 CNS = test system: SF-295 CNS
SF-539 CNS = test system: SF-539 CNS
SK-MEL-2 melanoma = test system: SK-MEL-2 melanoma
SK-MEL-28 melanoma = test system: SK-MEL-28 melanoma
SK-MEL-5 melanoma = test system: SK-MEL-5 melanoma
SK-OV-3 ovarian = test system: SK-OV-3 ovarian
SN12C renal = test system: SN12C renal
SNB-19 CNS = test system: SNB-19 CNS
SNB-75 CNS = test system: SNB-75 CNS
SNB-78 CNS = test system: SNB-78 CNS
SR leukemia = test system: SR leukemia
SW-620 colon = test system: SW-620 colon
TK-10 renal = test system: TK-10 renal
U251 CNS = test system: U251 CNS
UACC-257 melanoma = test system: UACC-257 melanoma
UACC-62 melanoma = test system: UACC-62 melanoma
UO-31 renal = test system: UO-31 renal
XF 498 CNS = test system: XF 498 CNS
A498 renal = test system: A498 renal
CCRF-CEM leukemia = test system: CCRF-CEM leukemia
HL-60(TB) leukemia = test system: HL-60(TB) leukemia
K-562 leukemia = test system: K-562 leukemia
OVCAR-4 ovarian = test system: OVCAR-4 ovarian

COc1ccc(-c2ccccc2)c(N/N=C2\CCCNC2=O)c1
TGI (786-0 renal): > 100 µM
TGI (A549 NSCLC): 27 µM
TGI (ACHN renal): > 100 µM
TGI (COLO 205 colon): > 100 µM
TGI (DLD-1 colon): > 100 µM
TGI (DMS 114 small cell lung): > 100 µM
TGI (DMS 273 small cell lung): > 100 µM
TGI (EKVX NSCLC): > 100 µM
TGI (HCC-2998 colon): > 100 µM
TGI (HCT-116 colon): 25.8 µM
TGI (HCT-15 colon): > 100 µM
TGI (HOP-18 NSCLC): > 100 µM
TGI (HOP-62 NSCLC): 87.1 µM
TGI (HOP-92 NSCLC): > 100 µM
TGI (HT29 colon): > 100 µM
TGI (IGROV1 ovarian): > 100 µM
TGI (KM12 colon): > 100 µM
TGI (KM20L2 colon): > 100 µM
TGI (LOX IMVI melanoma): > 100 µM
TGI (LXFL 529 NSCLC): > 100 µM
TGI (M14 melanoma): > 100 µM
TGI (M19-MEL melanoma): > 100 µM
TGI (MALME-3M melanoma): > 100 µM
TGI (MOLT-4 leukemia): > 100 µM
TGI (NCI-H226 lung): > 100 µM
TGI (NCI-H23 lung): > 100 µM
TGI (NCI-H460 lung): > 100 µM
TGI (NCI-H522 lung): > 100 µM
TGI (OVCAR-3 ovarian): > 100 µM
TGI (OVCAR-5 ovarian): > 100 µM
TGI (OVCAR-8 ovarian): > 100 µM
TGI (RPMI-8226 leukemia): > 100 µM
TGI (RXF 393 renal): 27.5 µM
TGI (SF-268 CNS): > 100 µM
TGI (SF-295 CNS): > 100 µM
TGI (SF-539 CNS): > 100 µM
TGI (SK-MEL-2 melanoma): > 100 µM
TGI (SK-MEL-28 melanoma): > 100 µM
TGI (SK-MEL-5 melanoma): > 100 µM
TGI (SK-OV-3 ovarian): > 100 µM
TGI (SN12C renal): > 100 µM
TGI (SNB-19 CNS): > 100 µM
TGI (SNB-75 CNS): > 100 µM
TGI (SNB-78 CNS): > 100 µM
TGI (SR leukemia): > 100 µM
TGI (SW-620 colon): > 100 µM
TGI (TK-10 renal): > 100 µM
TGI (U251 CNS): > 100 µM
TGI (UACC-257 melanoma): > 100 µM
TGI (UACC-62 melanoma): > 100 µM
TGI (UO-31 renal): > 100 µM
TGI (XF 498 CNS): 87.7 µM

CCOC(=O)COc1ccc(OC)c2c1C(=O)CCC2
TGI (A498 renal): > 100 µM
TGI (A549 NSCLC): > 100 µM
TGI (ACHN renal): > 100 µM
TGI (CCRF-CEM leukemia): > 100 µM
TGI (COLO 205 colon): > 100 µM
TGI (DMS 114 small cell lung): > 100 µM
TGI (DMS 273 small cell lung): > 100 µM
TGI (EKVX NSCLC): > 100 µM
TGI (HCT-116 colon): > 100 µM
TGI (HCT-15 colon): > 100 µM
TGI (HL-60(TB) leukemia): > 100 µM
TGI (HOP-18 NSCLC): > 100 µM
TGI (HT29 colon): > 100 µM
TGI (IGROV1 ovarian): > 100 µM
TGI (K-562 leukemia): > 100 µM
TGI (KM20L2 colon): > 100 µM
TGI (LOX IMVI melanoma): > 100 µM
TGI (LXFL 529 NSCLC): > 100 µM
TGI (M14 melanoma): > 100 µM
TGI (M19-MEL melanoma): > 100 µM
TGI (MOLT-4 leukemia): > 100 µM
TGI (NCI-H23 lung): > 100 µM
TGI (NCI-H460 lung): > 100 µM
TGI (OVCAR-3 ovarian): > 100 µM
TGI (OVCAR-4 ovarian): > 100 µM
TGI (OVCAR-8 ovarian): > 100 µM
TGI (RPMI-8226 leukemia): > 100 µM
TGI (RXF 393 renal): > 100 µM
TGI (SF-295 CNS): > 100 µM
TGI (SF-539 CNS): > 100 µM
TGI (SK-MEL-28 melanoma): > 100 µM
TGI (SK-MEL-5 melanoma): > 100 µM
TGI (SK-OV-3 ovarian): > 100 µM
TGI (SN12C renal): > 100 µM
TGI (SNB-19 CNS): > 100 µM
TGI (SNB-75 CNS): > 100 µM
TGI (SNB-78 CNS): > 100 µM
TGI (SW-620 colon): > 100 µM
TGI (TK-10 renal): > 100 µM
TGI (U251 CNS): > 100 µM
TGI (UACC-257 melanoma): > 100 µM
TGI (UACC-62 melanoma): > 100 µM
TGI (XF 498 CNS): > 100 µM
